The record followed here is patent publication US9701628B2, “12-epi pleuromutilins” (NABRIVA THERAPEUTICS AG, priority 2014, dated 2017).

In brackets after ≈: the same amount, converted by molar mass. Where a name gives a salt, the structure may show the parent alone. Read-outs that look alike come from different tables or passages of the source.

Experiment [1] has as its system Escherichia coli ATCC25922. The experiment in a line: MIC by broth microdilution (CLSI) against Escherichia coli ATCC 25922. In kind it is cell-based. The note with it: Escherichia coli ATCC25922, in vitro. The procedure: (§1) The in vitro activity against aerobic bacteria was determined by Broth Microdilution Test according to the Clinical and Laboratory Standards Institute (CLSI, former NCCLS) Document M7-A9 Vol 32, No 2 “Methods for Dilution Antimicrobial Susceptibility Tests for Bacteria that Grow Aerobically; Approved Standard—Ninth Edition (2012)”; and the test against anaerobic bacteria was performed by Agar Dilution Test according to the Clinical and Laboratory Standards Institute (CLSI, former NCCLS), Document, M11-A8, Vol. 32, No. 5: “Methods for Antimicrobial Susceptibility Testing of Anaerobic Bacteria; Approved Standard—Eighth Edition (2012)”. Performance standards and interpretive criteria followed the CLSI Document, M100-S23: “Performance Standards for Antimicrobial Susceptibility Testing; Twenty-Third Informational Supplement” (2013). The in vivo activity was tested by the septicaemia mouse model against Staphylococcus aureus and Escherichia coli.
(§2) The antibacterial activity expressed as minimal inhibitory concentration (MIC) was determined according to the approved standard reference recommendations of CLSI (former NCCLS) as described in the description of the application.
(In general: Broth dilution looks for growth in wells or tubes with falling amounts of substance.)

In experiment [2] the test system is Staphylococcus aureus ATCC 49951. Kind of experiment: MIC by broth microdilution (CLSI) against Staphylococcus aureus ATCC 49951. It counts as cell-based. The note with it: Staphylococcus aureus ATCC 49951, in vitro. The procedure:
as §1, §2

Consider “12-epi-12-desvinyl-14-O-{[1-(2-Amino-acetyl)-piperidin-4-yl-methylsulfanyl]-acetyl}-12-[(4-aminomethyl-phenylamino)-methyl] mutilin trihydrochloride [Example 81]”, for which the MIC in experiment [1] turned out to be 8 µg/mL; in experiment [2] it was 0.125 µg/mL.
The corresponding values for `C=C[C@]1(C)C[C@@H](OC(=O)CSC(C)(C)CNC(=O)[C@H](N)C(C)C)[C@]2(C)[C@H](C)CC[C@]3(CCC(=O)[C@H]32)[C@@H](C)[C@@H]1O` [Econor, econor, reference compound] are 32 µg/mL (≈ 56.7 µM) and “≦0.03 μg/mL”.
In the case of `C[C@@H]1CC[C@@]23CCC(=O)[C@H]2[C@]1(C)[C@H](OC(=O)CSc1ccc(CC(=O)NCCCN)cc1)C[C@](C)(CNCCCN)[C@@H](O)[C@@H]3C` [Example 1, 12-epi-12-desvinyl-14-O-{{4-[(3-Amino-propylcarbamoyl)-methyl]-phenylsulfanyl}-acetyl}-12-[(3-amino-propylamino)-methyl] mutilin trihydrochloride], the MIC is 0.5 µg/mL in experiment [1] (read-out: MIC) and ≤ 0.03 µg/mL in experiment [2] (ATCC49951, read-out: MIC).
In the case of `CC1C(O)C(C)(CNCc2ccc(CN)cc2)CC(OC(=O)CSc2ccc(CC(=O)NCCCN)cc2)C2(C)C(C)CCC13CCC(=O)C32.Cl.Cl.Cl` (stereo not drawn) [Example 9, 12-epi-12-desvinyl-14-O-{{4-[(3-Amino-propylcarbamoyl)-methyl]-phenylsulfanyl}-acetyl}-12-[(4-aminomethyl-benzylamino)-methyl] mutilin trihydrochloride], the figures for the MIC in experiment [1] and in experiment [2] were 0.5 µg/mL and “≦0.03 μg/mL”, respectively.
For `CC1C(O)C(C)(CNCCCCCCNC(=N)N)CC(OC(=O)CSc2ccc(CC(=O)NCCCN)cc2)C2(C)C(C)CCC13CCC(=O)C32.Cl.Cl.Cl` (stereo not drawn) [Example 11, 12-epi-12-desvinyl-14-O-{{4-[(3-Amino-propylcarbamoyl)-methyl]-phenylsulfanyl}-acetyl}-12-[(6-guanidino-hexylamino)-methyl] mutilin trihydrochloride], the MIC was 0.25 µg/mL in experiment [1] and “≦0.03 μg/mL” in experiment [2].
For `C[C@@H]1CC[C@@]23CCC(=O)[C@H]2[C@]1(C)[C@H](OC(=O)CSc1ccc(C(=O)NCc2ccc(CN)cc2)cc1)C[C@](C)(CNCCCCCCN)[C@@H](O)[C@@H]3C` [Example 23, 12-epi-12-desvinyl-14-O-{[4-(4-Aminomethyl-benzylcarbamoyl)-phenylsulfanyl]-acetyl}-12-[(6-amino-hexylamino)-methyl] mutilin trihydrochloride], the MIC in experiment [1] (read-out: MIC) is 1 µg/mL; in experiment [2] (ATCC49951, read-out: MIC), ≤ 0.03 µg/mL.
With `C[C@@H]1CC[C@@]23CCC(=O)[C@H]2[C@]1(C)[C@H](OC(=O)CSC1CCC(CN)CC1)C[C@](C)(CNCCCCCCN)[C@@H](O)[C@@H]3C` (stereo partly drawn) [Example 47, 12-epi-12-desvinyl-14-O-{[(4-Aminomethyl-cyclohexyl)-sulfanyl]-acetyl}-12-[(6-amino-hexylamino)-methyl] mutilin trihydrochloride], the MIC was 0.5 µg/mL in experiment [1] (read-out: MIC) and ≤ 0.03 µg/mL in experiment [2] (ATCC49951, read-out: MIC).
Regarding `C[C@@H]1CC[C@@]23CCC(=O)[C@H]2[C@]1(C)[C@H](OC(=O)CSc1ccc(CCCN)cc1)C[C@](C)(CNCCCCCCN)[C@@H](O)[C@@H]3C` [Example 48, 12-epi-12-desvinyl-14-O-{[4-(3-Amino-propyl)-phenylsulfanyl]-acetyl}-12-[(6-amino-hexylamino)-methyl] mutilin trihydrochloride], the MIC in experiment [1] (read-out: MIC) is 0.25 µg/mL; in experiment [2] (ATCC49951, read-out: MIC), ≤ 0.03 µg/mL.
On the same counts, the results for `C[C@@H]1CC[C@@]23CCC(=O)[C@H]2[C@]1(C)[C@H](OC(=O)CSc1ccc(CC(=O)NCCCN)cc1)C[C@](C)(CCNCCCN)[C@@H](O)[C@@H]3C` [Example 52, 12-epi-12-desvinyl-14-O-{{4-[(3-Amino-propylcarbamoyl)-methyl]-phenylsulfanyl}-acetyl}-12-[2-(3-amino-propylamino)-ethyl] mutilin trihydrochloride] are 0.5 µg/mL and ≤ 0.03 µg/mL.
On to `CC1C(O)C(C)(CNCCCCCCN)CC(OC(=O)CSc2cccc(CO)c2)C2(C)C(C)CCC13CCC(=O)C32.Cl.Cl` (stereo not drawn) [Example 54, 12-epi-12-desvinyl-14-O-[(3-Hydroxymethyl-phenylsulfanyl)-acetyl]-12-[(6-amino-hexylamino)-methyl] mutilin dihydrochloride], for which the minimum inhibitory concentration (MIC) in experiment [1] was determined as 4 µg/mL; in experiment [2], 0.125 µg/mL.
For the compound `C[C@@H]1CC[C@@]23CCC(=O)[C@H]2[C@]1(C)[C@H](OC(=O)CS[C@@H]1CC[C@@H](N)C[C@H]1O)C[C@](C)(CNCCCN)[C@@H](O)[C@@H]3C.Cl.Cl.Cl` [Example 62, 12-epi-12-desvinyl-14-O-{[(1R,2R,4R)-4-Amino-2-hydroxy-cyclohexylsulfanyl]-acetyl}-12-[(3-amino-propylamino)-methyl] mutilin trihydrochloride], the MIC was 4 µg/mL in experiment [1] and 0.25 µg/mL in experiment [2].
In the case of `CC1C(O)C(C)(CNCc2ccc(CN)cc2)CC(OC(=O)CSCCO)C2(C)C(C)CCC13CCC(=O)C32.Cl.Cl` (stereo not drawn) [Example 64, 12-epi-12-desvinyl-14-O-[(2-Hydroxy-ethylsulfanyl)-acetyl]-12-[(4-aminomethyl-benzylamino)-methyl] mutilin dihydrochloride], the values for the MIC in experiment [1] and in experiment [2] were 4 µg/mL and 0.5 µg/mL, respectively.
Consider `CC1C(O)C(C)(CNCc2ccc(CN)cc2)CC(OC(=O)CSCCN)C2(C)C(C)CCC13CCC(=O)C32.Cl.Cl.Cl` (stereo not drawn) [Example 65, 12-epi-12-desvinyl-14-O-[(2-Amino-ethylsulfanyl)-acetyl]-12-[(4-aminomethyl-benzylamino)-methyl] mutilin trihydrochloride], for which the MIC in experiment [1] turned out to be 2 µg/mL; in experiment [2], 0.5 µg/mL.
`C[C@@H]1CC[C@@]23CCC(=O)[C@H]2[C@]1(C)[C@H](OC(=O)CSc1nnc(N)[nH]1)C[C@](C)(CNCCCCCCN)[C@@H](O)[C@@H]3C.Cl.Cl.Cl` [Example 66, 12-epi-12-desvinyl-14-O-{[(5-Amino-4H-1,2,4-triazol-3-yl)-sulfanyl]-acetyl}-12-[(6-amino-hexylamino)-methyl] mutilin trihydrochloride]: the figures for the minimal inhibitory concentration (MIC) in experiment [1] and in experiment [2] were 4 µg/mL and 0.5 µg/mL, respectively.
For the compound `CC1C(O)C(C)(CNCCCCCCN)CC(OC(=O)CSc2ccncc2)C2(C)C(C)CCC13CCC(=O)C32.Cl.Cl.Cl` (stereo not drawn) [Example 68, 12-epi-12-desvinyl-14-O-[(Pyridin-4-ylsulfanyl)-acetyl]-12-[(6-amino-hexylamino)-methyl] mutilin trihydrochloride], the MIC was found to be 4 µg/mL in experiment [1] and 0.25 µg/mL in experiment [2].
Take `C[C@@H]1CC[C@@]23CCC(=O)[C@H]2[C@]1(C)[C@H](OC(=O)CSC1CCN(C(=O)CN)CC1)C[C@](C)(CNCc1ccc(CN)cc1)[C@@H](O)[C@@H]3C` [Example 78, 12-epi-12-desvinyl-14-O-{[1-(2-Amino-acetyl)-piperidin-4-yl-sulfanyl)]-acetyl}-12-[(4-aminomethyl-benzylamino)-methyl] mutilin trihydrochloride]: the MIC in experiment [1] (read-out: MIC) is 2 µg/mL; in experiment [2] (ATCC49951, read-out: MIC), 0.5 µg/mL.

The MIC is the smallest concentration in the dilution series that meets the test's criterion for growth inhibition.
